Target: TRPA1 (Homo sapiens, UniProt O75762)
Assay: Determination of TRPA1 activity in vitro (TRPA1 antagonism in vitro)
Format: cell-based
Details: procedure of Wei et al., Anesthesiology 111 (2009) 147-154

Sequence of TRPA1 (O75762 whole entry): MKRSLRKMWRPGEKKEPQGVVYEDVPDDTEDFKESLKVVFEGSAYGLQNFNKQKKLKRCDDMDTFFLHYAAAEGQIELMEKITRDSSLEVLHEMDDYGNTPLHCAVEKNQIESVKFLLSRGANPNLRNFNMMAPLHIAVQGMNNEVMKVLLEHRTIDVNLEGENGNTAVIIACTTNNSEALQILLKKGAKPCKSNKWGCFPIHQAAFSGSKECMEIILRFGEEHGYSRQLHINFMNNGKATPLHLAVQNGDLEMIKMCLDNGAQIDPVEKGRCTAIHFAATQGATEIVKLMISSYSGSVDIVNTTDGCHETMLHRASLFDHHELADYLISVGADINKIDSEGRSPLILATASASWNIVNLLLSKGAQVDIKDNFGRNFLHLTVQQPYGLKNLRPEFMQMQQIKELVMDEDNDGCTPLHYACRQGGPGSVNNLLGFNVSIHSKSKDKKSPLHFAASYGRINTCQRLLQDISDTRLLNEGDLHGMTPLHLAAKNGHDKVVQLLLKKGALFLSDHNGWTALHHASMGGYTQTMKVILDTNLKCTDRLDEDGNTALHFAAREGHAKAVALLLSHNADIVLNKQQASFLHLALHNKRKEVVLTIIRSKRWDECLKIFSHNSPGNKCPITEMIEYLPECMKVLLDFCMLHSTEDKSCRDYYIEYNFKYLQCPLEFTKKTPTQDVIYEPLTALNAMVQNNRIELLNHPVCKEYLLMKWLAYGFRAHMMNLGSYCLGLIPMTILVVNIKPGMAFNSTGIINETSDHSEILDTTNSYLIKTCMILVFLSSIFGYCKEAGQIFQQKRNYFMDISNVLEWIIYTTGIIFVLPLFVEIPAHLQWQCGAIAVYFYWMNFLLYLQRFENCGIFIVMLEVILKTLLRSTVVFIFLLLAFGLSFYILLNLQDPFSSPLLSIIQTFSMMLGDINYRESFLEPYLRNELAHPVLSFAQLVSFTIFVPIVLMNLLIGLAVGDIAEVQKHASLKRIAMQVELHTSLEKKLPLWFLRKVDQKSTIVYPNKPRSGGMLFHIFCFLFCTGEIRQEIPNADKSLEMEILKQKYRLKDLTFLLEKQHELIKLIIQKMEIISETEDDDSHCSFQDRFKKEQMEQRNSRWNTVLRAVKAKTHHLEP

Compound	IC50
5-Bromo-2-(ethylamino)-N-(2-methylbut-3-yn-2-yl)nicotinanilide [Example 153]	10400 nM
5-Chloro-N-(2-methylbut-3-yn-yl)-2-(2,2,2-trifluoroethylamino)-nicotinamide [Example 34]	500 nM
C#CC(C)(C)NC(=O)c1cc(F)cnc1NCCC(F)(F)F [Example 1, 5-Fluoro-N-(2-methylbut-3-yn-2-yl)-2-(3,3,3-trifluoropropylamino)-nicotinamide]	1900 nM
C#CC(C)(C)NC(=O)c1cc(C(F)(F)F)cnc1NCCC(F)(F)F [Example 2, N-(2-Methylbut-3-yn-2-yl)-5-(trifluoromethyl)-2-(3,3,3-trifluoropropylamino) nicotinamide]	300 nM
C#CC(C)(C)NC(=O)c1cc(Cl)ccc1NCCC [Example 3, 5-Chloro-N-(2-methylbut-3-yn-2-ylbut-3)-2-(propylamino)benzamide]	1100 nM
C#CC(C)(C)NC(=O)c1cc(Cl)ccc1NC(C)C [Example 4, 5-Chloro-2-(isopropylamino)-N-(2-methylbut-3-yn-2-yl)benzamide]	4700 nM
C#CC(C)(C)NC(=O)c1cc(Cl)ccc1NCC(F)F [Example 5, 5-Chloro-2-(2,2-difluoroethylamino)-N-(2-methylbut-3-yn-2-yl)benzamide]	5100 nM
C#CC(C)(C)NC(=O)c1cc2c(cc1NCCC(F)(F)F)OCCO2 [Example 6, N-(2-Methylbut-3-yn-2-yl)-7-(3,3,3-trifluoropropylamino)-2,3-dihydrobenzo[b][1,4]dioxine-6-carboxamide]	11800 nM
C#CC(C)(C)NC(=O)c1cc2c(cc1NCC(C)C)OCO2 [Example 7, 6-(Isobutylamino)-N-(2-methylbut-3-yn-2-yl)benzo[d][1,3]dioxole-5-carboxamide]	2900 nM
C#CC(C)(C)NC(=O)c1cc2c(cc1NCC(C)C)OCCCO2 [Example 8, 8-(Isobutylamino)-N-(2-methylbut-3 yn-2-yl)-3,4-dihydro-2H-benzo[b][1,4]dioxepine-7-carboxamide]	13000 nM
C#CC(C)(C)NC(=O)c1cc2c(cc1NCC(C)C)OCCO2 [Example 9, 7-(Isobutylamino)-N-(2-methylbut-3-yn-2-yl)-2,3-dihydrobenzo[b][1,4]dioxine-6-carboxamide]	11200 nM
C#CC(C)(C)NC(=O)c1cc(C(F)(F)F)ccc1NCC(F)F [Example 10, 2-(2,2-Difluoroethylamino)-N-(2-methylbut-3yn-2-yl)-5-(trifluoromethyl)benzamide]	1500 nM
C#CC(C)(C)NC(=O)c1cnc(C(F)(F)F)nc1NCCC(F)(F)F [Example 11, N-(2-Methylbut-3-yn-2-yl)-2-(trifluoromethyl)-4-(3,3,3-trifluoropropylamino)pyrimidine-5-carboxamide]	3700 nM
C#CC(C)(C)NC(=O)c1cc(C(F)(F)F)ccc1NCCC(F)(F)F [Example 12, N-(2-Methylbut-3-yn-2-yl)-5-(trifluoromethyl)-2-(3,33-trifluoropropylamino) benzamide]	500 nM
C#CC(C)(C)NC(=O)c1ccc(Cl)cc1NCCC [Example 13, 4-Chloro-N-(2-methylbut-3-yn-2-yl)-2-(propylamino)benzamide]	800 nM
C#CC(C)(C)NC(=O)c1cc(Cl)ccc1NCC(F)(F)F [Example 14, 5-Chloro-N-(2-methylbut-3-yn-2-yl)-2-(2,2,2-trifluoroethylamino)-benzamide]	1200 nM
C#CC(C)(C)NC(=O)c1cccc(F)c1NCCC(F)(F)F [Example 15, 3-Fluoro-N-(2-methylbut-3-yn-2-yl)-2-(3,3,3-trifluoropropylamino)-benzamide]	3000 nM

Compound	IC50
C#CC(C)(C)NC(=O)c1cccc(F)c1NCCC [Example 16, 3-Fluoro-N-(2-methylbut-3-yn-2-yl)-2-(propylamino)benzamide]	10800 nM
C#CC(C)(C)NC(=O)c1cc(F)c(F)cc1NC1CCC1 [Example 17, 2-(Cyclobutylamino)-4,5-difluoro-N-(2-methylbut-3-yn-2-yl)benzamide]	1200 nM
C#CC(C)(C)NC(=O)c1cc(C(F)(F)F)ccc1NCC(F)(F)C(F)(F)F [Example 18, N-(2-Methylbut-3-yn-2-yl)-2-(2,2,3,3,3-pentafluoropropylamino)-5-(trifluoromethyl)benzamide]	300 nM
C#CC(C)(C)NC(=O)c1ccccc1NCC(F)(F)C(F)(F)F [Example 19, N-(2-Methylbut-3-yn-2-yl)-2-(2,2,3,3,3-pentafluoropropylamino)-benzamide]	500 nM
C#CC(C)(CC)NC(=O)c1cc(F)cnc1NCC(F)F (stereo not shown) [Example 20, 2-(2,2-Difluoroethylamino)-5-fluoro-N-(3-methylpent-1-yn-3-yl)nicotinamide]	1400 nM
C#CC(C)(C)NC(=O)c1cccc(F)c1NC1CCC1 [Example 21, 2-(Cyclobutylamino)-3-fluoro-N-(2-methylbut-3-yin-2-yl)benzamide]	5200 nM
C#CC(C)(C)NC(=O)c1cc(F)ccc1NCC(F)(F)F [Example 22, 5-Fluoro-N-(2-methylbut-3-yn-2-yl)-2-(2,2,2-trifluoroethylamino)-benzamide]	7200 nM
C#CC(C)(C)NC(=O)c1cc(C(F)(F)F)ccc1NC1CCC1 [Example 23, 2-(Cyclobutylamino)-N-(2-methylbut-3-yn-2-yl)-5-(trifluoromethyl)-benzamide]	100 nM
C#CC(C)(C)NC(=O)c1cc(F)ccc1NC1CCC1 [Example 24, 2-(Cyclobutylamino)-5-fluoro-N-(2-methylbut-3-yn-2-yl)benzamide]	1300 nM
C#CC(C)(C)NC(=O)c1cc(F)cnc1NC1CCC1 [Example 25, 2-(Cyclobutylamino)-5-fluoro-N-(2-methylbut-3-yn-2-yl)nicotinamide]	3000 nM
C#CC(C)(C)NC(=O)c1cc(Cl)cnc1NC(C)C [Example 26, 5-Chloro-2-(isopropylamino)-N-(2-methylbut-3-yn-2-yl)-nicotinamide]	3300 nM
C#CC(C)(C)NC(=O)c1cc(Cl)cnc1NC1CCC1 [Example 27, 5-Chloro-2-(cyclobutylamino)-N-(2-methylbut-3-yn-2-yl)nicotinamide]	700 nM
C#CC(C)(C)NC(=O)c1cc(C(F)(F)F)cnc1NC(C)C [Example 28, 2-(Isopropylamino)-N-(2-methylbut-3-yn-2-yl)-5-(trifluoromethyl)-nicotinamide]	1200 nM
C#CC(C)(C)NC(=O)c1cc(F)cnc1NCC(F)(F)C(F)(F)F [Example 29, 5-Fluoro-N-(2-methylbut-3-yn-2-yl)-2-(2,2,3,3-pentafluoropropyl-amino)nicotinamide]	400 nM
C#CC(C)(C)NC(=O)c1cc(C)ccc1NCC(F)(F)C(F)(F)F [Example 30, 5-Methyl-N-(2-methylbut-3-yn-2-yl)-2-(2,2,3,3,3-pentafluoropropyl-amino)benzamide]	300 nM
C#CC(C)(C)NC(=O)c1cc(F)ccc1NCC(F)(F)C(F)(F)F [Example 31, 5-Fluoro-N-(2-methylbut-3-yn-2-yl)-2-(2,2,3,3,3-pentafluoropropylamino) benzamide]	2600 nM
C#CC(C)(C)NC(=O)c1cc(Cl)cnc1NCC(F)F [Example 32, 5-Chloro-2-(2,2-difluoroethylamino)-N-(2-methylbut-3-yn-2-yl)nicotinamide]	3800 nM

From patent US9533952B2, “N-prop-2-ynyl carboxamide derivatives and their use as TRPA1 antagonists” (Orion Corporation, priority 2012, dated 2017)
